Earlier results in patent US11149028B2, “Methods for treating melanoma using small molecules” (NOVA SOUTHEASTERN UNIVERSITY, priority 2016, dated 2021).

System: PC-3 cells
Conditions: read-out: IC50, apoptotic cell death of PC-3 cells; cited from earlier work

O=c1c(O)c(-c2ccc(O)c(O)c2)oc2cc(O)cc(O)c12 [quercetin]
IC50: 100 µM
